From the CheMixHub viscosity set
± gives the uncertainty stated by the source.

Assay: xn = mol fraction of the nth substance listed

CC(C)CCO + CCO
viscosity [mPa·s]
Conditions | x1 = 0.0558 | x1 = 0.1156 | x1 = 0.1843 | x1 = 0.2587 | x1 = 0.3588 | x1 = 0.4457 | x1 = 0.5523 | x1 = 0.6771 | x1 = 0.8255 | x2 = 0.5
298.15 K, 100 kPa | 1.291 ± 0.056 | 1.591 ± 0.057 | 1.919 ± 0.057 | 2.235 ± 0.057 | 2.576 ± 0.058 | 2.831 ± 0.058 | 3.086 ± 0.059 | 3.312 ± 0.06 | 3.463 ± 0.06 | –
303.15 K, 100 kPa | 1.175 ± 0.056 | 1.471 ± 0.057 | 1.806 ± 0.057 | 2.029 ± 0.057 | 2.353 ± 0.058 | 2.549 ± 0.058 | 2.756 ± 0.058 | 2.917 ± 0.059 | 2.945 ± 0.059 | –
308.15 K, 100 kPa | 1.236 ± 0.056 | 1.672 ± 0.057 | 2.049 ± 0.057 | 2.279 ± 0.057 | 2.559 ± 0.058 | 2.699 ± 0.058 | 2.763 ± 0.058 | 2.814 ± 0.059 | 2.815 ± 0.059 | –
308.15 K, 101 kPa | – | – | – | – | – | – | – | – | – | 1.747 ± 0.037
313.15 K, 101 kPa | – | – | – | – | – | – | – | – | – | 1.519 ± 0.032
318.15 K, 101 kPa | – | – | – | – | – | – | – | – | – | 1.372 ± 0.029

Cc1cccc(Cl)c1 + Nc1cccc(Cl)c1
viscosity [mPa·s], 100 kPa
Conditions | x2 = 0.0705 | x2 = 0.1546 | x2 = 0.2565 | x2 = 0.3413 | x2 = 0.4391 | x2 = 0.5101 | x2 = 0.6494 | x2 = 0.7592 | x2 = 0.8887
303.15 K | 0.9978 ± 0.051 | 1.301 ± 0.051 | 1.665 ± 0.051 | 1.967 ± 0.052 | 2.313 ± 0.052 | 2.563 ± 0.053 | 3.05 ± 0.054 | 3.431 ± 0.055 | 3.876 ± 0.056
308.15 K | 0.9306 ± 0.05 | 1.202 ± 0.051 | 1.529 ± 0.051 | 1.8 ± 0.051 | 2.11 ± 0.052 | 2.333 ± 0.053 | 2.769 ± 0.054 | 3.109 ± 0.055 | 3.505 ± 0.056
313.15 K | 0.8678 ± 0.05 | 1.109 ± 0.051 | 1.398 ± 0.051 | 1.636 ± 0.051 | 1.909 ± 0.052 | 2.106 ± 0.052 | 2.489 ± 0.053 | 2.788 ± 0.054 | 3.137 ± 0.055
318.15 K | 0.8037 ± 0.05 | 1.014 ± 0.051 | 1.265 ± 0.051 | 1.473 ± 0.051 | 1.71 ± 0.052 | 1.88 ± 0.052 | 2.212 ± 0.053 | 2.471 ± 0.053 | 2.771 ± 0.055

CNC(C)=O + CCCCn1cc[n+](C)c1.F[B-](F)(F)F
101 kPa
Conditions | viscosity [mPa·s]
293.15 K, x2 = 0.8495 | 82.55 ± 5.1
308.15 K, x2 = 0.714 | 24.65 ± 1.5

[Ba+2].[Cl-].[Cl-] + O
viscosity [mPa·s], 101.3 kPa
Conditions | x1 = 0.0009 | x1 = 0.0018 | x1 = 0.00893 | x1 = 0.0125 | x1 = 0.0177 | x1 = 0.02116 | x1 = 0.02631
293.15 K | 1.016 ± 0.022 | 1.027 ± 0.022 | 1.123 ± 0.024 | 1.174 ± 0.025 | 1.261 ± 0.027 | 1.325 ± 0.028 | 1.43 ± 0.03
298.15 K | 0.9041 ± 0.019 | 0.9144 ± 0.019 | 1.005 ± 0.021 | 1.053 ± 0.022 | 1.134 ± 0.024 | 1.194 ± 0.025 | 1.29 ± 0.027
303.15 K | 0.8105 ± 0.017 | 0.8204 ± 0.017 | 0.9062 ± 0.019 | 0.9513 ± 0.02 | 1.027 ± 0.022 | 1.082 ± 0.023 | 1.171 ± 0.025
308.15 K | 0.7315 ± 0.015 | 0.7405 ± 0.016 | 0.8219 ± 0.017 | 0.8637 ± 0.018 | 0.9352 ± 0.02 | 0.9867 ± 0.021 | 1.069 ± 0.023
318.15 K | 0.6068 ± 0.013 | 0.6141 ± 0.013 | 0.688 ± 0.015 | 0.725 ± 0.015 | 0.788 ± 0.017 | 0.8328 ± 0.018 | 0.9047 ± 0.019

CCOCCO + C1CCOC1
viscosity [mPa·s], 101.33 kPa
Conditions | x1 = 0.1003 | x1 = 0.2025 | x1 = 0.3008 | x1 = 0.403 | x1 = 0.5069 | x1 = 0.6012 | x1 = 0.7048 | x1 = 0.7983 | x1 = 0.8839
298.15 K | 0.593 ± 0.004 | 0.677 ± 0.005 | 0.787 ± 0.005 | 0.908 ± 0.006 | 1.057 ± 0.007 | 1.232 ± 0.008 | 1.503 ± 0.01 | 1.701 ± 0.011 | 1.898 ± 0.012
303.15 K | 0.502 ± 0.004 | 0.571 ± 0.004 | 0.66 ± 0.005 | 0.756 ± 0.005 | 0.874 ± 0.006 | 1.011 ± 0.007 | 1.223 ± 0.008 | 1.381 ± 0.009 | 1.546 ± 0.01
308.15 K | 0.475 ± 0.004 | 0.539 ± 0.004 | 0.618 ± 0.005 | 0.702 ± 0.005 | 0.808 ± 0.006 | 0.93 ± 0.006 | 1.091 ± 0.007 | 1.242 ± 0.008 | 1.385 ± 0.009

CCOCCO + O=C1CCCCC1
298.15 K, 101 kPa
Conditions | viscosity [mPa·s]
x2 = 0.0926 | 1.684 ± 0.041
x2 = 0.1867 | 1.587 ± 0.036
x2 = 0.2824 | 1.529 ± 0.032
x2 = 0.3797 | 1.494 ± 0.028
x2 = 0.4787 | 1.469 ± 0.025
x2 = 0.5793 | 1.472 ± 0.023
x2 = 0.6818 | 1.506 ± 0.021
x2 = 0.786 | 1.564 ± 0.019
x2 = 0.892 | 1.691 ± 0.018

Oc1ccc(Cl)cc1 + O=Cc1ccccc1
308.15 K, 101.33 kPa
Conditions | viscosity [mPa·s]
x2 = 0.11 | 5.75 ± 0.092
x2 = 0.304 | 3.8 ± 0.058
x2 = 0.485 | 3.01 ± 0.044
x2 = 0.56 | 2.495 ± 0.036
x2 = 0.62 | 2.2 ± 0.031
x2 = 0.728 | 1.79 ± 0.024
x2 = 0.907 | 1.388 ± 0.018

CCOCCO + O=S1(=O)CCCC1
303.15 K
Conditions | viscosity [mPa·s]
101 kPa, x2 = 0.0459 | 1.145 ± 0.013
101 kPa, x2 = 0.1045 | 0.887 ± 0.011
101 kPa, x2 = 0.1957 | 0.692 ± 0.008
101 kPa, x2 = 0.2957 | 0.877 ± 0.01
101 kPa, x2 = 0.3504 | 1.721 ± 0.02
101 kPa, x2 = 0.3966 | 2.176 ± 0.025
101 kPa, x2 = 0.4471 | 2.684 ± 0.031
101 kPa, x2 = 0.4987 | 3.644 ± 0.042
101 kPa, x2 = 0.5514 | 4.636 ± 0.053
101 kPa, x2 = 0.5999 | 5.66 ± 0.064
101 kPa, x2 = 0.6984 | 6.898 ± 0.077
101 kPa, x2 = 0.8002 | 8.224 ± 0.092
101 kPa, x2 = 0.8997 | 9.136 ± 0.1
101.33 kPa, x1 = 0.042 | 8.909 ± 0.13
101.33 kPa, x1 = 0.0712 | 7.997 ± 0.12
101.33 kPa, x1 = 0.109 | 7.117 ± 0.11
101.33 kPa, x1 = 0.1849 | 5.742 ± 0.088
101.33 kPa, x1 = 0.2899 | 4.443 ± 0.069
101.33 kPa, x1 = 0.3942 | 3.612 ± 0.056
101.33 kPa, x1 = 0.5561 | 2.759 ± 0.043
101.33 kPa, x1 = 0.6236 | 2.472 ± 0.038
101.33 kPa, x1 = 0.6586 | 2.349 ± 0.036
101.33 kPa, x1 = 0.7385 | 2.108 ± 0.033
101.33 kPa, x1 = 0.7622 | 2.027 ± 0.032
101.33 kPa, x1 = 0.8406 | 1.843 ± 0.029
101.33 kPa, x1 = 0.9162 | 1.688 ± 0.026
101.33 kPa, x1 = 0.9539 | 1.619 ± 0.025

CC(C)CCO + CCOCCO
313.15 K, 101 kPa
Conditions | viscosity [mPa·s]
x1 = 0.102 | 1.385 ± 0.033
x1 = 0.2036 | 1.425 ± 0.034
x1 = 0.8035 | 1.945 ± 0.045

CNCCO + CCOCCO
viscosity [mPa·s], 101.3 kPa
Conditions | 293.15 K | 298.15 K | 303.15 K | 308.15 K | 313.15 K | 318.15 K | 323.15 K
x1 = 0.118 | 2.547 ± 0.13 | 2.249 ± 0.11 | 1.998 ± 0.1 | 1.785 ± 0.091 | 1.604 ± 0.082 | 1.448 ± 0.074 | 1.313 ± 0.067
x1 = 0.34 | 3.887 ± 0.2 | 3.356 ± 0.17 | 2.92 ± 0.15 | 2.56 ± 0.13 | 2.26 ± 0.11 | 2.006 ± 0.1 | 1.791 ± 0.091
x1 = 0.444 | 4.708 ± 0.24 | 4.021 ± 0.2 | 3.464 ± 0.18 | 3.01 ± 0.15 | 2.634 ± 0.13 | 2.32 ± 0.12 | 2.057 ± 0.1
x1 = 0.545 | 5.72 ± 0.29 | 4.828 ± 0.25 | 4.116 ± 0.21 | 3.541 ± 0.18 | 3.071 ± 0.16 | 2.684 ± 0.14 | 2.362 ± 0.12
x1 = 0.737 | 8.19 ± 0.42 | 6.751 ± 0.34 | 5.636 ± 0.29 | 4.76 ± 0.24 | 4.058 ± 0.21 | 3.492 ± 0.18 | 3.03 ± 0.15
x1 = 0.915 | 11.49 ± 0.58 | 9.252 ± 0.47 | 7.565 ± 0.38 | 6.267 ± 0.32 | 5.255 ± 0.27 | 4.453 ± 0.23 | 3.812 ± 0.19

COCc1ccccc1 + CCCCCOC(C)=O
Conditions | viscosity [mPa·s]
298.15 K, 101 kPa, x2 = 0.5 | 0.8479 ± 0.015
